Measured values from patent publication US20120178915A1, “PYRIMIDINE DERIVATIVES AND ANALOGS, PREPARATION METHOD AND USE THEREOF” (priority 2009, published 2012).
Converted amounts (≈) assume the structure as drawn. Like-named read-outs stand apart in the source and are kept apart here.

Assays:
Type in all cases: cell-based
[1] = test system: Streptococcus pneumoniae 6303 (PRSP); experiment: microbe, parasite or virus in culture; settings: 24 h, read-out: Minimum Inhibitory Concentration, MIC
[2] = test system: Enterococcus fecal F631 (VRE); experiment: organism not typed; settings: 24 h, read-out: Minimum Inhibitory Concentration, MIC
green Streptococcus 1009 = experiment: microbe, parasite or virus in culture; settings: 37° C., 24 h, read-out: Minimum Inhibitory Concentration, MIC
[3] = test system: Enterococcus faecalis 51299; experiment: microbe, parasite or virus in culture; settings: Enterococcus faecalis, 51299, 24 h, read-out: Minimum Inhibitory Concentration, MIC
[4] = test system: Enterococcus faecalis 1513 (VRE); experiment: microbe, parasite or virus in culture; settings: 24 h, read-out: Minimum Inhibitory Concentration, MIC
Gram-positive Bacteria = test system: Gram-positive Bacteria
[5] = test system: Enterococcus faecalis 29212; experiment: microbe, parasite or virus in culture; settings: 37° C., 24 h, read-out: Minimum Inhibitory Concentration, MIC
[6] = test system: Streptococcus bovis 10035; experiment: microbe, parasite or virus in culture; settings: Streptococcus equinus, 37° C., 24 h, read-out: Minimum Inhibitory Concentration, MIC
Clostridium tetani = experiment: microbe, parasite or virus in culture; settings: 24 h
[7] = test system: Streptococcus pneumoniae 10351; experiment: microbe, parasite or virus in culture; settings: 37° C., 24 h, read-out: Minimum Inhibitory Concentration, MIC
Oral candidiasis = experiment: MIC broth microdilution; settings: Microorganism 32, Oral candidiasis; 37° C., 24 h; read-out: Minimum Inhibitory Concentration, MIC
MIC broth microdilution = settings: Microorganism 33, Dermatophytosis; 37° C., 24 h; read-out: Minimum Inhibitory Concentration, MIC
[8] = test system: Streptococcus pneumoniae M2; experiment: microbe, parasite or virus in culture; settings: 37° C., 24 h, read-out: Minimum Inhibitory Concentration, MIC
[9] = test system: Streptococcus pneumoniae 6301; experiment: microbe, parasite or virus in culture; settings: 37° C., 24 h, read-out: Minimum Inhibitory Concentration, MIC
[10] = test system: Corynebacterium diphtheriae; experiment: microbe, parasite or virus in culture; settings: 37° C., 24 h, read-out: Minimum Inhibitory Concentration, MIC
[11] = test system: Enterococcus faecalis 19433; experiment: microbe, parasite or virus in culture; settings: 37° C., 24 h, read-out: Minimum Inhibitory Concentration, MIC
[12] = test system: Enterococcus faecalis 583 (VRE); experiment: microbe, parasite or virus in culture; settings: 24 h, read-out: Minimum Inhibitory Concentration, MIC
[13] = test system: Enterococcus faecalis F2518 (VRE); experiment: microbe, parasite or virus in culture; settings: 24 h, read-out: Minimum Inhibitory Concentration, MIC
Bacillus cereus 2 = experiment: microbe, parasite or virus in culture; settings: 37° C., 24 h, read-out: Minimum Inhibitory Concentration, MIC
[14] = test system: Staphylococcus aureus 705 (MRSA); experiment: microbe, parasite or virus in culture; settings: 24 h, read-out: Minimum Inhibitory Concentration, MIC
Pyogenic Streptococcus = experiment: microbe, parasite or virus in culture; settings: 37° C., 24 h, read-out: Minimum Inhibitory Concentration, MIC
[15] = test system: Staphylococcus aureus 703 (MRSA); experiment: microbe, parasite or virus in culture; settings: 24 h, read-out: Minimum Inhibitory Concentration, MIC
Clostridium perfringens = experiment: microbe, parasite or virus in culture; settings: 24 h, read-out: Minimum Inhibitory Concentration, MIC
[16] = test system: Streptococcus pneumoniae 62; experiment: microbe, parasite or virus in culture; settings: 37° C., 24 h, read-out: Minimum Inhibitory Concentration, MIC
Streptococcus 10342 = experiment: MIC broth microdilution; settings: 37° C., 24 h, read-out: Minimum Inhibitory Concentration, MIC
[17] = test system: Staphylococcus aureus 43300 (MRSA); experiment: microbe, parasite or virus in culture; settings: 24 h, read-out: Minimum Inhibitory Concentration, MIC
Bacillus cereus 246 = experiment: microbe, parasite or virus in culture; settings: 37° C., 24 h, read-out: Minimum Inhibitory Concentration, MIC
[18] = test system: Staphylococcus aureus 29231; experiment: microbe, parasite or virus in culture; settings: 37° C., 24 h, read-out: Minimum Inhibitory Concentration, MIC
Bacillus subtilis 82 = experiment: microbe, parasite or virus in culture; settings: 37° C., 24 h, read-out: Minimum Inhibitory Concentration, MIC
Bacillus subtilis 168 = experiment: microbe, parasite or virus in culture; settings: 37° C., 24 h, read-out: Minimum Inhibitory Concentration, MIC
Bacillus anthracis 1 = experiment: microbe, parasite or virus in culture; settings: Bacillus anthracis, 1, 24 h, read-out: Minimum Inhibitory Concentration, MIC
[19] = test system: Streptococcus agalactiae B; experiment: microbe, parasite or virus in culture; settings: 37° C., 24 h, read-out: Minimum Inhibitory Concentration, MIC
[20] = test system: Staphylococcus aureus 704 (MRSA); experiment: microbe, parasite or virus in culture; settings: 24 h, read-out: Minimum Inhibitory Concentration, MIC
[21] = read-out: Minimum Inhibitory Concentration, MIC, Microorganism 29, Clostridium tetani, 37° C.
[22] = read-out: Minimum Inhibitory Concentration, MIC, Microorganism 30, Clostridium tetani (second line of that name), 37° C.
[23] = Enterococcus faecalis (VRE), Staphylococcus aureus (MRSA), Streptococcus pneumoniae 6303 (PRSP), Bacillus cereus, Bacillus subtilis, Enterococcus faecalis, Staphylococcus aureus, Streptococcus pneumoniae, Streptococcus agalactiae B and streptococci 4

Structure (SMILES) | MIC [1] [µM] | MIC [2] [µM] | MIC (green Streptococcus 1009) [µM] | MIC [3] [µM] | MIC [4] [µM] | MIC [5] [µM] | MIC [6] [µM] | MIC (Clostridium tetani; [21]) [µM] | MIC (Clostridium tetani; [22]) [µM] | MIC [7] [µM] | MIC (Oral candidiasis) [µM] | MIC (MIC broth microdilution) [µM] | MIC [8] [µM] | MIC [9] [µM] | MIC [10] [µM] | MIC [11] [µM] | MIC [12] [µM] | MIC [13] [µM] | MIC (Bacillus cereus 2) [µM] | MIC [14] [µM] | other results
CCc1nn2c(=O)cc(-c3ccc(C#N)cc3)[nH]c2c1-c1ccc(Cl)cc1Cl [Compound 5] | 105 (≈ 43.1 µg/mL) | 19.2 (≈ 7.86 µg/mL) | 0.31 (≈ 0.127 µg/mL) | 0.3 (≈ 0.123 µg/mL) | 35.2 (≈ 14.4 µg/mL) | 0.16 (≈ 0.0655 µg/mL) | 2.01 (≈ 0.823 µg/mL) | 50.3 (≈ 20.6 µg/mL) | 23.2 (≈ 9.5 µg/mL) | 1.25 (≈ 0.512 µg/mL) | 52.1 (≈ 21.3 µg/mL) | 33.5 (≈ 13.7 µg/mL) | 0.04 (≈ 0.0164 µg/mL) | 0.3 (≈ 0.123 µg/mL) | 26.1 (≈ 10.7 µg/mL) | 2.01 (≈ 0.823 µg/mL) | 32.1 (≈ 13.1 µg/mL) | 31.3 (≈ 12.8 µg/mL) | 10.5 (≈ 4.3 µg/mL) | 123 (≈ 50.4 µg/mL) | inhibition of growth (conclusion from MICs) (Gram-positive Bacteria; the majority of Bacillus cereus, Bacillus subtilis and Enterococcus faecalis): significantly inhibited the growth; MIC (Pyogenic Streptococcus): 20.1 µM (≈ 8.23 µg/mL); MIC [15]: 135 µM (≈ 55.4 µg/mL); MIC (Clostridium perfringens): 55.3 µM (≈ 22.6 µg/mL); MIC [16]: 10.5 µM (≈ 4.3 µg/mL); MIC (Streptococcus 10342): 1.33 µM (≈ 0.544 µg/mL); MIC [17]: 213 µM (≈ 87.3 µg/mL); MIC (Bacillus cereus 246): 0.3 µM (≈ 0.123 µg/mL); MIC [18]: 5.31 µM (≈ 2.17 µg/mL); MIC (Bacillus subtilis 82): 0.04 µM (≈ 0.0164 µg/mL); MIC (Bacillus subtilis 168): 0.12 µM (≈ 0.0491 µg/mL); MIC (Bacillus anthracis 1): 52.4 µM (≈ 21.4 µg/mL); MIC [19]: 0.16 µM (≈ 0.0655 µg/mL); MIC [20]: 150 µM (≈ 61.5 µg/mL)
Cc1nn2c(=O)cc(-c3ccc(C(F)(F)F)nc3)[nH]c2c1-c1ccc(Cl)cc1Cl [Compound 8] | 1.23 (≈ 0.54 µg/mL) | 0.04 (≈ 0.0176 µg/mL) | 0.3 (≈ 0.132 µg/mL) | 0.36 (≈ 0.158 µg/mL) | 0.16 (≈ 0.0703 µg/mL) | 0.66 (≈ 0.29 µg/mL) | 10.5 (≈ 4.61 µg/mL) | 70.3 (≈ 30.9 µg/mL) | 50.6 (≈ 22.2 µg/mL) | 0.04 (≈ 0.0176 µg/mL) | 20.3 (≈ 8.92 µg/mL) | 31.8 (≈ 14 µg/mL) | 1.25 (≈ 0.549 µg/mL) | 2.5 (≈ 1.1 µg/mL) | 30.3 (≈ 13.3 µg/mL) | 11.5 (≈ 5.05 µg/mL) | 0.31 (≈ 0.136 µg/mL) | 0.32 (≈ 0.141 µg/mL) | 0.65 (≈ 0.285 µg/mL) | 50.6 (≈ 22.2 µg/mL) | inhibition of growth (conclusion from MICs) (Gram-positive Bacteria; [23]): significantly inhibited the growth; MIC (Pyogenic Streptococcus): 0.63 µM (≈ 0.277 µg/mL); MIC [15]: 1.23 µM (≈ 0.54 µg/mL); MIC (Clostridium perfringens): 61.3 µM (≈ 26.9 µg/mL); MIC [16]: 0.63 µM (≈ 0.277 µg/mL); MIC (Streptococcus 10342): 0.3 µM (≈ 0.132 µg/mL); MIC [17]: 0.6 µM (≈ 0.264 µg/mL); MIC (Bacillus cereus 246): 2.6 µM (≈ 1.14 µg/mL); MIC [18]: 10.3 µM (≈ 4.52 µg/mL); MIC (Bacillus subtilis 82): 1.35 µM (≈ 0.593 µg/mL); MIC (Bacillus subtilis 168): 0.66 µM (≈ 0.29 µg/mL); MIC (Bacillus anthracis 1): 56.8 µM (≈ 24.9 µg/mL); MIC [19]: 0.56 µM (≈ 0.246 µg/mL); MIC [20]: 10.3 µM (≈ 4.52 µg/mL)
Nc1nc(-c2ccccc2)nc2c1cnn2-c1ccccc1 [Compound 38] | 125 (≈ 35.9 µg/mL) | 151 (≈ 43.4 µg/mL) | 101 (≈ 29.1 µg/mL) | 106 (≈ 30.6 µg/mL) | 150 (≈ 43.2 µg/mL) | 145 (≈ 41.7 µg/mL) | 121 (≈ 34.9 µg/mL) | 160 (≈ 46.1 µg/mL) | 120 (≈ 34.6 µg/mL) | 136 (≈ 39.2 µg/mL) | 150 (≈ 43.2 µg/mL) | 121 (≈ 34.8 µg/mL) | 156 (≈ 44.9 µg/mL) | 141 (≈ 40.4 µg/mL) | 150 (≈ 43.2 µg/mL) | 108 (≈ 31.2 µg/mL) | 160 (≈ 46.1 µg/mL) | 116 (≈ 33.2 µg/mL) | 124 (≈ 35.5 µg/mL) | 210 (≈ 60.4 µg/mL) | MIC (Pyogenic Streptococcus): 126 µM (≈ 36.3 µg/mL); MIC [15]: 215 µM (≈ 61.8 µg/mL); MIC (Clostridium perfringens): 125 µM (≈ 35.9 µg/mL); MIC [16]: 140 µM (≈ 40.4 µg/mL); MIC (Streptococcus 10342): 131 µM (≈ 37.7 µg/mL); MIC [17]: 210 µM (≈ 60.4 µg/mL); MIC (Bacillus cereus 246): 154 µM (≈ 44.3 µg/mL); MIC [18]: 100 µM (≈ 28.8 µg/mL); MIC (Bacillus subtilis 82): 120 µM (≈ 34.5 µg/mL); MIC (Bacillus subtilis 168): 212 µM (≈ 61.1 µg/mL); MIC (Bacillus anthracis 1): 266 µM (≈ 76.4 µg/mL); MIC [19]: 105 µM (≈ 30.2 µg/mL); MIC [20]: 160 µM (≈ 46.1 µg/mL)
Cc1nn2c(=O)cc(-c3ccc(C#N)cc3)[nH]c2c1-c1ccc(Cl)cc1Cl [Compound 10] | 0.04 (≈ 0.0158 µg/mL) | 0.56 (≈ 0.221 µg/mL) | 1.45 (≈ 0.573 µg/mL) | 2.3 (≈ 0.909 µg/mL) | 0.61 (≈ 0.241 µg/mL) | 1.25 (≈ 0.494 µg/mL) | 1.05 (≈ 0.415 µg/mL) | 60.3 (≈ 23.8 µg/mL) | 20.3 (≈ 8.02 µg/mL) | 1.35 (≈ 0.534 µg/mL) | 99.2 (≈ 39.2 µg/mL) | 55.9 (≈ 22.1 µg/mL) | 0.31 (≈ 0.123 µg/mL) | 0.16 (≈ 0.0632 µg/mL) | 70.3 (≈ 27.8 µg/mL) | 0.02 (≈ 0.0079 µg/mL) | 0.99 (≈ 0.391 µg/mL) | 0.31 (≈ 0.123 µg/mL) | 0.31 (≈ 0.123 µg/mL) | 0.31 (≈ 0.123 µg/mL) | inhibition of growth (conclusion from MICs) (Gram-positive Bacteria; [23]): significantly inhibited the growth; MIC (Pyogenic Streptococcus): 2.5 µM (≈ 0.988 µg/mL); MIC [15]: 0.34 µM (≈ 0.134 µg/mL); MIC (Clostridium perfringens): 25.1 µM (≈ 9.92 µg/mL); MIC [16]: 0.25 µM (≈ 0.0988 µg/mL); MIC (Streptococcus 10342): 1.15 µM (≈ 0.455 µg/mL); MIC [17]: 1.23 µM (≈ 0.486 µg/mL); MIC (Bacillus cereus 246): 1.32 µM (≈ 0.522 µg/mL); MIC [18]: 0.63 µM (≈ 0.249 µg/mL); MIC (Bacillus subtilis 82): 0.63 µM (≈ 0.249 µg/mL); MIC (Bacillus subtilis 168): 0.63 µM (≈ 0.249 µg/mL); MIC (Bacillus anthracis 1): 35.6 µM (≈ 14.1 µg/mL); MIC [19]: 5 µM (≈ 1.98 µg/mL); MIC [20]: 0.23 µM (≈ 0.0909 µg/mL)
